Assays:
[1] = wn = mass fraction of the nth substance listed; details: 101 kPa, Liquid; for viscosity: Capillary tube (Ostwald / Ubbelohde) method; for thermal conductivity: Hot wire method; for mass density: Pycnometric method
[2] = Liquid; for viscosity / mass density: 101 kPa; for viscosity: Capillary tube (Ostwald / Ubbelohde) method; for mass density: Pycnometric method; for thermal conductivity: 101.33 kPa, Hot wire method

CCOC(F)(F)C(F)(F)C(F)(F)C(F)(F)F [1-ethoxy-1,1,2,2,3,3,4,4,4-nonafluorobutane] + CO
[1], 297.8 K
Details | mass density [kg/m3] | thermal conductivity [W/m/K] | viscosity [mPa·s]
w2 = 0 | 1417 | – | 0.6065
w2 = 0.1 | 1357 | 0.0729 | 0.6034
w2 = 0.2 | 1294.4 | 0.0794 | 0.6802
w2 = 0.4 | 1058.4 | 0.0948 | 0.6089
w2 = 0.6 | 946.5 | 0.1108 | 0.571
w2 = 0.8 | 852.6 | 0.1326 | 0.5495

CO [methanol]
[2], 297.8 K
Details | mass density [kg/m3] | viscosity [mPa·s]
– | 791.8 | 0.5463

CO [methanol] + CCOC(F)(F)C(F)(F)C(F)(F)C(F)(F)F
[1], 297.8 K, w1 = 1
Details | mass density [kg/m3] | viscosity [mPa·s]
– | 791.8 | 0.5463

CCOC(F)(F)C(F)(F)C(F)(F)C(F)(F)F [1-ethoxy-1,1,2,2,3,3,4,4,4-nonafluorobutane]
[2]
Details | mass density [kg/m3] | thermal conductivity [W/m/K] | viscosity [mPa·s]
278.8 K | – | 0.0712 | –
297.8 K | 1417 | – | 0.6065
298.2 K | 1417 | 0.0662 | 0.6065
300.6 K | – | 0.0644 | –
314.1 K | – | 0.0616 | –
328.3 K | – | 0.059 | –
344.1 K | – | 0.0563 | –

CCCCOCC [butyl ethyl ether]
[2]
Details | mass density [kg/m3] | thermal conductivity [W/m/K] | viscosity [mPa·s]
298.15 K | – | 0.1258 | –
298.2 K | 743 | – | 0.3868
299.62 K | – | 0.125 | –
312.17 K | – | 0.1229 | –
333.39 K | – | 0.1017 | –
354.63 K | – | 0.0949 | –

CCOC(F)(F)C(F)(F)C(F)(F)C(F)(F)F [1-ethoxy-1,1,2,2,3,3,4,4,4-nonafluorobutane] + CCCCOCC
[1], 298.2 K
Details | mass density [kg/m3] | thermal conductivity [W/m/K] | viscosity [mPa·s]
w2 = 0 | 1417 | 0.0662 | 0.6065
w2 = 0.1 | 1293.4 | 0.0664 | 0.5458
w2 = 0.2 | 1187.4 | 0.0707 | 0.5042
w2 = 0.4 | 1024.9 | 0.0774 | 0.4379
w2 = 0.6 | 907.4 | 0.0921 | 0.4077
w2 = 0.8 | 813.7 | 0.1085 | 0.397

CCCCOCC [butyl ethyl ether] + CCOC(F)(F)C(F)(F)C(F)(F)C(F)(F)F
[1], 298.2 K, w1 = 1
Details | mass density [kg/m3] | thermal conductivity [W/m/K] | viscosity [mPa·s]
– | 743 | 0.1258 | 0.3868

From the NIST ThermoML archive (doi:10.1021/je1011828)
